Results as given in BindingDB's records for patent US20250057848 (Neurim Pharmaceuticals (1991), 2025).

Target: Neurotensin receptor type 1 (Homo sapiens, UniProt P30989)
Assay: Binding of Neurotensin to the NTSR1 Receptor
Description: However, the potency of GAL 475 at these receptors was lower than 1 micromolar and therefore not considered to be pharmacologically interesting. […] GAL475 was subsequently tested for PAM activity at the human NTS1 (FAST-0330I) and NTS2 (FAST-0331I) receptors, at 100-50,000 nanomolar concentrations.

Sequence of Neurotensin receptor type 1 (P30989 whole entry): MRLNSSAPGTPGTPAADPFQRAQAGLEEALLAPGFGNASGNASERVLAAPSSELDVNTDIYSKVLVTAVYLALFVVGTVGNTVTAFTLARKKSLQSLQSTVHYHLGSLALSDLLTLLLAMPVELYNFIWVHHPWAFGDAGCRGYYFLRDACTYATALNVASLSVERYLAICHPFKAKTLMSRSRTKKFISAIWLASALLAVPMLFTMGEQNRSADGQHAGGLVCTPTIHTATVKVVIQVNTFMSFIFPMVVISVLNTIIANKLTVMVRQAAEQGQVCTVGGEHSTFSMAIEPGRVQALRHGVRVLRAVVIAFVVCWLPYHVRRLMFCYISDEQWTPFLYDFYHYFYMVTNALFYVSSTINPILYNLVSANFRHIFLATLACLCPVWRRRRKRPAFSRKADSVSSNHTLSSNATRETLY

EC50: 355 nM
SMILES: CCCNc1nc(NC)nc2c1NC(NC)N=C2NCC(C)(C)O (stereo unspecified) [US20250057848, Compound GAL-475]
